Data published in patent publication US20220257698A1, “ANGIOTENSIN TYPE 2 (AT2) RECEPTOR AGONISTS FOR USE IN THE TREATMENT OF CANCER” (LANTHIOPEP B.V., priority 2019, published 2022).

Columns and labels:
[1] = target: tyrosine kinases (PTK) in colon carcinoma PDX lysates; assay: PamChip tyrosine kinase (PTK) activity profiling of colon carcinoma PDX tumor lysates; set-up: species or system human PDX grown in mice; Kinase score: scale not given here; details: for Kinase statistic: value<0 = higher activity in vehicle-treated tumors; for Kinase score: vehicle-treated vs KcAng(1-7)-treated tumors
Method: (§1) In particular, to determine the effect of treatment on kinase activities, Tyrosine (PTK) and Serine/Threonine (STK) PamChip®-based kinase activity profiling in lysates from colon carcinoma PDX was performed by PamGene International B.V., The Netherlands.
(§2) PamGene® kinase activity profiles were measured for vehicle-treated colon cancer PDX tumors (control, n=10) and KcAng(1-7)-treated colon cancer PDX tumors (treatment, n=10).
(§3) Frozen tissues of tumor samples were processed to make lysates followed by determination of tyrosine kinase and serine/threonine kinase activity profiles. Datasets were analyzed by PamGene bioinformatics toolbox, for example by using PamGene's method called Upstream Kinase Analysis.
(§4) Kinase Score was used for ranking kinases based on their significance and specificity in terms of the set of peptides used for the corresponding kinase. Kinase statistics indicates the overall change of the peptide set that represents the kinase. Kinase statistics value<0 indicates higher activity in vehicle-treated tumors.

[2] = target: serine/threonine kinases (STK) in colon carcinoma PDX lysates; assay: PamChip serine/threonine kinase (STK) activity profiling of colon carcinoma PDX tumor lysates; set-up: species or system human PDX grown in mice; Kinase score: scale not given here; details: for Kinase statistic: value<0 = higher activity in vehicle-treated tumors; for Kinase score: vehicle-treated vs KcAng(1-7)-treated tumors
Method: as §1, §2, §3, §4

Lys-Asp-Arg-Val-Abu/Ala-Ile-His-Abu/Ala (KDRVAIHA; not fully specified; cyclic thioether (Abu/Ala bridge); VARIANT (5)..(5) /replace=“Abu”; VARIANT (8)..(8) /replace=“Abu”; SITE (1)..(8) /note=“Variant residues given in the sequence have no preference with respect to those in the annotations for variant positions”) [KcAng(1-7)]
Kinase statistic ([1]; kinase CCK4/PTK7): −0.58
Kinase score ([1]; kinase CCK4/PTK7): 2.23
Kinase statistic ([1]; kinase EPHA1): −0.52
Kinase score ([1]; kinase EPHA1): 2.01
Kinase statistic ([1]; kinase EPHA2): −0.50
Kinase score ([1]; kinase EPHA2): 1.96
Kinase statistic ([1]; kinase EPHA3): −0.55
Kinase score ([1]; kinase EPHA3): 2.38
Kinase statistic ([1]; kinase EPHA4): −0.52
Kinase score ([1]; kinase EPHA4): 2.55
Kinase statistic ([1]; kinase EPHA8): −0.51
Kinase score ([1]; kinase EPHA8): 1.71
Kinase statistic ([1]; kinase FER): −0.51
Kinase score ([1]; kinase FER): 2.49
Kinase statistic ([1]; kinase FES): −0.47
Kinase score ([1]; kinase FES): 1.84
Kinase statistic ([1]; kinase FGFR1): −0.49
Kinase score ([1]; kinase FGFR1): 2.39
Kinase statistic ([1]; kinase FGFR2): −0.47
Kinase score ([1]; kinase FGFR2): 1.82
Kinase statistic ([1]; kinase FGFR3): −0.48
Kinase score ([1]; kinase FGFR3): 1.89
Kinase statistic ([1]; kinase HER2): −0.47
Kinase score ([1]; kinase HER2): 2.68
Kinase statistic ([1]; kinase HER4): −0.47
Kinase score ([1]; kinase HER4): 2.11
Kinase statistic ([1]; kinase JAK1~B): −0.49
Kinase score ([1]; kinase JAK1~B): 1.70
Kinase statistic ([1]; kinase LMR1): −0.71
Kinase score ([1]; kinase LMR1): 4.10
Kinase statistic ([1]; kinase MER): −0.44
Kinase score ([1]; kinase MER): 1.74
Kinase statistic ([1]; kinase MET): −0.46
Kinase score ([1]; kinase MET): 2.16
Kinase statistic ([1]; kinase TEC): −0.44
Kinase score ([1]; kinase TEC): 1.79
Kinase statistic ([1]; kinase TXK): −0.46
Kinase score ([1]; kinase TXK): 2.05
Kinase statistic ([1]; kinase TYRO3/SKY): −0.45
Kinase score ([1]; kinase TYRO3/SKY): 2.03
Kinase statistic ([2]; kinase CDC2/CDK1): −0.80
Kinase score ([2]; kinase CDC2/CDK1): 3.79
Kinase statistic ([2]; kinase CDK2): −0.88
Kinase score ([2]; kinase CDK2): 5.40
Kinase statistic ([2]; kinase CDK4): −0.80
Kinase score ([2]; kinase CDK4): 3.11
Kinase statistic ([2]; kinase CDK5): −0.80
Kinase score ([2]; kinase CDK5): 3.11
Kinase statistic ([2]; kinase CDK6): −0.80
Kinase score ([2]; kinase CDK6): 3.10
Kinase statistic ([2]; kinase CDK9): −0.83
Kinase score ([2]; kinase CDK9): 4.19
Kinase statistic ([2]; kinase CDKL2): −0.98
Kinase score ([2]; kinase CDKL2): 4.62
Kinase statistic ([2]; kinase CDKL5): −0.82
Kinase score ([2]; kinase CDKL5): 4.21
Kinase statistic ([2]; kinase ERK1): −0.82
Kinase score ([2]; kinase ERK1): 4.44
Kinase statistic ([2]; kinase ERK2): −0.79
Kinase score ([2]; kinase ERK2): 3.84
Kinase statistic ([2]; kinase ERK5): −0.90
Kinase score ([2]; kinase ERK5): 5.40
Kinase statistic ([2]; kinase JNK1): −0.77
Kinase score ([2]; kinase JNK1): 3.92
Kinase statistic ([2]; kinase JNK2): −0.77
Kinase score ([2]; kinase JNK2): 3.67
Kinase statistic ([2]; kinase JNK3): −0.77
Kinase score ([2]; kinase JNK3): 4.08
Kinase statistic ([2]; kinase MAPK14): −0.79
Kinase score ([2]; kinase MAPK14): 3.54
Kinase statistic ([2]; kinase PCTAIRE2): −0.74
Kinase score ([2]; kinase PCTAIRE2): 3.44
Kinase statistic ([2]; kinase RAF1): −0.74
Kinase score ([2]; kinase RAF1): 2.97
Kinase statistic ([2]; kinase RSK3): −0.75
Kinase score ([2]; kinase RSK3): 3.42
Kinase statistic ([2]; kinase p38[beta]): −0.84
Kinase score ([2]; kinase p38[beta]): 4.14
Kinase statistic ([2]; kinase p38[gamma]): −0.82
Kinase score ([2]; kinase p38[gamma]): 3.47
